{"source": "patent US10995150B2", "about": "“Methods for inhibiting atherosclerosis by administering an anti-PCSK9 antibody” (REGENERON PHARMACEUTICALS, INC., priority 2013, dated 2021)", "key": {"APOE*3Leiden.CETP mice [1]": {"test_system": "APOE*3Leiden.CETP mice", "assay": "Flow cytometric analysis of white blood cells (PBMC)", "format": "in vivo, mouse", "from_the_text": "After 8 weeks of treatment, peripheral blood mononuclear cells (PBMCs) were isolated from fresh blood samples and were sorted into GR-1+ (neutrophils/granulocytes), GR-1− (lymphocytes/monocytes), CD3+ (T-cells), CD19+ (B-cells) and CD11b+/Ly6C^low and CD11b+/Ly6C^hi (monocytes) cells using flow cytometric (FACS) analysis. The following conjugated monoclonal antibodies were used from Becton Dickinson: GR-1 FITC, CD3 PerCpCy5-5, CD19 V450, CD11b APC and Ly6C PE-Cy7."}, "APOE*3Leiden.CETP mice [2]": {"test_system": "APOE*3Leiden.CETP mice", "assay": "Histological assessment of atherosclerosis in the aortic root", "format": "in vivo, mouse", "conditions": "18 weeks; for lesion severity (severe type IV-V lesions) compared with the control / lesion-free sections / undiseased segments compared with the control: dose of mAb316P not specified", "from_the_text": "(§1) Hearts were isolated, fixed in formalin, and embedded in paraffin. Cross-sections (5 μm each) of the entire aortic root area were stained with hematoxylin-phloxin-saffron. For each mouse, four sections at intervals of 50 μm were used for quantitative and qualitative assessment of the atherosclerotic lesions. To determine atherosclerotic lesion size and severity, the lesions were classified into five categories according to the American Heart Association classification: I) early fatty streak, II) regular fatty streak, III) mild plaque, IV) moderate plaque, and V) severe plaque. Total lesion area and number of lesions per cross-section, as well as the percentage undiseased segments, were calculated. To assess lesion severity as a percentage of all lesions, type I-Ill lesions were classified as mild lesions, and type IV-V lesions were classified as severe lesions. To determine the total plaque load in the thoracic aorta, perfusion-fixed aortas (from the aortic origin to the diaphragm) were cleaned of extravascular fat, opened longitudinally, pinned en face, and stained for lipids with oil-red O as described previously by Verschuren et al. (Arterioscler Thromb Vasc Biol. 2005; 25:161-167). Data were normalized for analyzed surface area and expressed as percentage of the stained area. Photos/images were taken with the Olympus BX51 microscope and lesion areas were measured using Cell D imaging software (Olympus Soft Imaging Solutions)."}, "APOE*3Leiden.CETP mice [3]": {"test_system": "APOE*3Leiden.CETP mice", "assay": "Liver weight and hepatic lipid analysis", "conditions": "atorvastatin 3.6 mg/kg/d alone; 18 weeks", "quoted_text": "Mice received a semi-synthetic cholesterol-rich diet, containing 15% (w/w) cacao butter and 0.15% cholesterol (Western-type diet [WTD]; Hope Farms, Woerden, The Netherlands) for a run-in period of 3 weeks to increase plasma total cholesterol (TC) levels up to ˜15 mmol/L. Body weight (BW) and food intake were monitored regularly during the study. […] At the end of the treatment period, all animals were sacrificed by CO2 inhalation. Livers and hearts were isolated to assess hepatic LDLR protein levels, lipid content, atherosclerosis development, and plaque composition.\nLiver tissue samples were homogenized in phosphate-buffered saline, and the protein content was measured. Lipids were extracted, separated by high-performance thin-layer chromatography on silica gel plates, and analyzed with TINA2.09 software (Raytest Isotopen Messgerate Straubenhardt, Germany), as previously described by Post et al. (Hepatology. 1999; 30:491-500)."}, "APOE*3Leiden.CETP mice [4]": {"test_system": "APOE*3Leiden.CETP mice", "assay": "Plasma total cholesterol, triglycerides and lipoprotein profiles", "format": "in vivo, mouse", "conditions": "for TC reductions in lipoprotein profile (FPLC): lipoprotein separation by FPLC, FIG. 1C/1D; for average plasma TC, change compared to control: alone or + atorvastatin 3.6 mg/kg/d in diet", "from_the_text": "Ninety female APOE*3Leiden.CETP transgenic mice (9 to 13 weeks of age), expressing human CETP under control of its natural flanking regions, were used. During the study, mice were housed under standard conditions with a 12-hour light-dark cycle and had free access to food and water. Animal experiments were approved by the Institutional Animal Care and Use Committee of The Netherlands Organization for Applied Research.\nPlasma was isolated from blood collected in ethylenediaminetetraacetic acid (EDTA)-coated cups via tail vein bleeding after a 4-hour fast every 2 to 4 weeks. Plasma TC and TG were determined using enzymatic kits according to the manufacturer's protocols (cat. no. 1458216 and cat. no. 1488872, respectively; Roche/Hitachi) and average plasma TC and TG levels were calculated. Lipoprotein profiles for TC were measured after lipoprotein separation by fast protein liquid chromatography (FPLC) after 4, 12, and 18 weeks of treatment. MAb316P levels were measured by a human Fc enzyme-linked immunosorbent assay."}, "APOE*3Leiden.CETP mice [5]": {"test_system": "APOE*3Leiden.CETP mice", "assay": "Total plaque load in the aortic arch (oil-red O)", "format": "in vivo, mouse", "conditions": "mAb316P 10 mg/kg, alone or + atorvastatin 3.6 mg/kg/d; 18 weeks", "from_the_text": "as §1, with “To determine the total plaque load in the thoracic aorta, perfusion-fixed aortas (from the aortic origin to the diaphragm) were cleaned of extravascular fat, opened longitudinally, pinned en face, and stained for lipids with oil-red O as described previously by Verschuren et al. (Arterioscler Thromb Vasc Biol. 2005; 25:161-167).” left out"}, "hepatic LDLR protein": {"test_system": "hepatic LDLR protein", "assay": "Hepatic LDLR protein levels (Western blot)", "format": "in vivo, mouse", "conditions": "alone or + atorvastatin 3.6 mg/kg/d, 18 weeks", "description": "Liver tissues were homogenized in lysis buffer (50 mM Tris-HCL [pH=7.4], 150 mM NaCl, 0.25% deoxycholic acid, 1% NP-40 [Igepal], 1 mM EDTA, protease inhibitor cocktail [complete, Roche], 1 mM PMSF, 1 mM Na3VO4) and then centrifuged at 6500 rpm at 4° C. for 30 minutes. Protein concentration in cell lysates was determined by bicinchonic acid protein assay (Thermo Scientific) according to manufacturer's instructions. 50 μg of protein lysates was separated by SDS-PAGE and then transferred to polyvinylidene fluoride membranes (Millipore). Blots were subjected to goat anti-mouse LDLR from R&D Systems and rabbit anti-goat horseradish peroxidase (HRP) from AbD Serotec or mouse anti-α-Tubulin from Sigma and horse anti-mouse HRP from Cell Signaling Technologies (according to the manufacturer's instructions); blots were developed with West Femto Super Signal ECL (Thermo Scientific) and subjected to the Chemi-Doc-it imaging system. Intensities of protein bands were quantified using Image J software."}, "[6]": {"conditions": "10 mg/kg MAb316P and/or atorvastatin, after 8 weeks of treatment, mean ± SD"}, "[7]": {"conditions": "mAb316P 10 mg/kg, alone or + atorvastatin, 8 weeks"}, "[8]": {"conditions": "mAb316P 3 mg/kg weekly s.c., alone or + atorvastatin 3.6 mg/kg/d"}, "[9]": {"conditions": "mAb316P 10 mg/kg weekly s.c., alone or + atorvastatin 3.6 mg/kg/d"}, "[10]": {"conditions": "mAb316P 3 mg/kg weekly s.c., 18 weeks"}, "[11]": {"conditions": "mAb316P 10 mg/kg weekly s.c., 18 weeks"}}, "data": [{"compound": "CC(C)c1c(C(=O)Nc2ccccc2)c(-c2ccccc2)c(-c2ccc(F)cc2)n1CC[C@@H](O)C[C@@H](O)CC(=O)O", "note": "[atorvastatin, reference compound]", "values": [{"measurement": "B-cells", "setting": "APOE*3Leiden.CETP mice [1]; [6]", "value": "69.5 ± 17.4 % of PBMC population"}, {"measurement": "CD11b+ Ly6C^hi", "setting": "APOE*3Leiden.CETP mice [1]; [6]", "value": "51.2 ± 6.4 % of monocytes"}, {"measurement": "CD11b+ Ly6C^low", "setting": "APOE*3Leiden.CETP mice [1]; [6]", "value": "47.8 ± 6.3 % of monocytes"}, {"measurement": "Lymphocytes/Monocytes", "setting": "APOE*3Leiden.CETP mice [1]; [6]", "value": "94.9 ± 1.6 % of PBMC population"}, {"measurement": "Monocytes", "setting": "APOE*3Leiden.CETP mice [1]; [6]", "value": "5.3 ± 2.4 % of PBMC population"}, {"measurement": "Neutrophils/Granulocytes", "setting": "APOE*3Leiden.CETP mice [1]; [6]", "value": "5.1 ± 1.6 % of PBMC population"}, {"measurement": "T-cells", "setting": "APOE*3Leiden.CETP mice [1]; [6]", "value": "17.0 ± 4.8 % of PBMC population"}, {"measurement": "lesion severity (severe type IV-V lesions) compared with the control", "setting": "APOE*3Leiden.CETP mice [2]", "value": "reduced severity to a lesser extent"}, {"measurement": "lesion-free sections / undiseased segments compared with the control", "setting": "APOE*3Leiden.CETP mice [2]", "value": "no effect"}, {"measurement": "atherosclerotic lesion size (aortic root), change compared to the control", "setting": "APOE*3Leiden.CETP mice [2]; atorvastatin 3.6 mg/kg/d alone", "value": "−35", "unit": "%"}, {"measurement": "effect on the number of lesions", "setting": "APOE*3Leiden.CETP mice [2]; atorvastatin 3.6 mg/kg/d alone", "value": "no effect"}, {"measurement": "liver weight, change compared to the control group", "setting": "APOE*3Leiden.CETP mice [3]", "value": "−15", "unit": "%"}, {"measurement": "TC reductions in lipoprotein profile (FPLC)", "setting": "APOE*3Leiden.CETP mice [4]", "value": "confined to apoB-containing lipoproteins"}]}, {"compound": "mAb316P: human anti-PCSK9 antibody; HCVR SEQ ID NO:1, LCVR SEQ ID NO:6", "values": [{"measurement": "total plaque area in the aortic arch, change vs control", "setting": "APOE*3Leiden.CETP mice [5]", "value": "−67", "unit": "%"}, {"measurement": "Hepatic LDLR protein levels, change vs control", "setting": "hepatic LDLR protein; mAb316P 3 mg/kg weekly s.c.", "value": "+80%"}, {"measurement": "Hepatic LDLR protein levels, change vs control", "setting": "hepatic LDLR protein; mAb316P 10 mg/kg weekly s.c.", "value": "+133%"}, {"measurement": "B-cells", "setting": "APOE*3Leiden.CETP mice [1]; [6]", "value": "66.3 ± 15.0 % of PBMC population"}, {"measurement": "CD11b+ Ly6C^hi", "setting": "APOE*3Leiden.CETP mice [1]; [6]", "value": "57.5 ± 8.4 % of monocytes"}, {"measurement": "CD11b+ Ly6C^low", "setting": "APOE*3Leiden.CETP mice [1]; [6]", "value": "40.0 ± 8.0 % of monocytes"}, {"measurement": "Lymphocytes/Monocytes", "setting": "APOE*3Leiden.CETP mice [1]; [6]", "value": "92.9 ± 2.0 % of PBMC population"}, {"measurement": "Monocytes", "setting": "APOE*3Leiden.CETP mice [1]; [6]", "value": "8.9 ± 2.5 % of PBMC population"}, {"measurement": "Neutrophils/Granulocytes", "setting": "APOE*3Leiden.CETP mice [1]; [6]", "value": "7.1 ± 2.0 % of PBMC population"}, {"measurement": "anti-inflammatory Ly6C^low monocytes, change vs control", "setting": "APOE*3Leiden.CETP mice [1]; [7]", "value": "+12%"}, {"measurement": "granulocytes/neutrophils (as % of PBMC population), change vs control", "setting": "APOE*3Leiden.CETP mice [1]; [7]", "value": "−20", "unit": "%"}, {"measurement": "monocytes (as % of PBMC population), change vs control", "setting": "APOE*3Leiden.CETP mice [1]; [7]", "value": "−28", "unit": "%"}, {"measurement": "pro-inflammatory Ly6C^hi monocytes, change vs control", "setting": "APOE*3Leiden.CETP mice [1]; [7]", "value": "−8", "unit": "%"}, {"measurement": "lesion severity (severe type IV-V lesions) compared with the control", "setting": "APOE*3Leiden.CETP mice [2]", "value": "fewer severe (type IV-V) lesions"}, {"measurement": "lesion-free sections / undiseased segments compared with the control", "setting": "APOE*3Leiden.CETP mice [2]", "value": "more lesion-free sections"}, {"measurement": "atherosclerotic lesion size (aortic root), change compared to the control", "setting": "APOE*3Leiden.CETP mice [2]; [8]", "value": "−71", "unit": "%"}, {"measurement": "number of lesions per cross-section, change compared to the control", "setting": "APOE*3Leiden.CETP mice [2]; [8]", "value": "−17", "unit": "%"}, {"measurement": "atherosclerotic lesion size (aortic root), change compared to the control", "setting": "APOE*3Leiden.CETP mice [2]; [9]", "value": "−88", "unit": "%"}, {"measurement": "number of lesions per cross-section, change compared to the control", "setting": "APOE*3Leiden.CETP mice [2]; [9]", "value": "−30", "unit": "%"}, {"measurement": "TC, 3 mg mAb316P versus 10 mg mAb316P (dose dependence)", "setting": "APOE*3Leiden.CETP mice [4]; alone, or both with atorvastatin 3.6 mg/kg/d, 18 weeks", "value": "−14", "unit": "%"}, {"measurement": "TC reductions in lipoprotein profile (FPLC)", "setting": "APOE*3Leiden.CETP mice [4]", "value": "confined to apoB-containing lipoproteins"}, {"measurement": "average plasma TC, change compared to control", "setting": "APOE*3Leiden.CETP mice [4]; [10]", "value": "−37", "unit": "%"}, {"measurement": "average plasma TG, change compared to control", "setting": "APOE*3Leiden.CETP mice [4]; [10]", "value": "−33", "unit": "%"}, {"measurement": "average plasma TC, change compared to control", "setting": "APOE*3Leiden.CETP mice [4]; [11]", "value": "−46", "unit": "%"}, {"measurement": "average plasma TG, change compared to control", "setting": "APOE*3Leiden.CETP mice [4]; [11]", "value": "−39", "unit": "%"}]}]}
